Where two headings read alike, the source gives them in different places.
Columns and labels:
[1] = cited from earlier work
[2] = in vivo; cited from earlier work
[3] = Plasma phenylalanine response to phenylalanine challenge in TD-yes and TD-no patients (Study Three); assay type: in vivo, psychotic males and females; settings: 100 mg/kg, TD Yes vs TD No patients
Text: In this work (Study Two and Three) the plasma level tells us the actual level of phenylalanine in the blood and the phenylalanine/large neutral amino acid ratio gives us a marker relative to the other large neutral amino acids. This ratio thus provides information on brain levels of phenylalanine, or more specifically, the penetrance past the blood brain barrier of phenylalanine. This is so because it is known that phenylalanine competes with the other large neutral amino acids, such as tyrosine, tryptophan, isoleucine, leucine and valine for entry into the brain across the blood brain barrier.

[4] = Multi-challenge study, videotaped TD movement counts (Study Four, Example 2); assay type: in vivo, male patients
Protocol: A single patient was exposed over a period of several weeks to multiple dietary challenges, at the rate of one baseline day and one challenge day per week.
The baseline days were Tuesdays and the challenge days were Wednesdays.
On both Tuesdays and Wednesdays a videotaped evaluation procedure for TD was conducted and videotaped TD movement count sessions were held. These were 2 hours post-coffee on Tuesday and 2 hours post challenge on Wednesday. Movement counts were blindly rated from the videotapes by the present inventor.
Evaluation sessions were conducted at the same time on both days with patients fasting (except for one cup of decaffeinated coffee) on the baseline days.
A carbohydrate challenge breakfast; 223 grams of carbohydrates, 1369 calories, less than 4% protein.
A 100 mg/kg challenge of Phe.
A BCAA dietary supplement as follows:
a) 2 patients had 209 mg/kg doses of BCAA powder given in orange juice
The BCAA powder given in orange juice and in the flavored formulation at 150 mg/kg and 275 mg/kg consisted of 30 parts--valine, 30 parts-isoleucineand 40 parts-leucine.

[5] = Plasma large neutral amino acid and phenylethylamine levels, fasting and 2 hours after protein challenge (Study Two); settings: for Plasma level, Post-loading / Plasma LNAA Ratio, Post-loading: 2 hours after protein challenge; for Plasma level, Post-loading / Plasma level, Fasting / Plasma LNAA Ratio, Post-loading / Plasma LNAA Ratio, Fasting: mean ± SD
Protocol: Blood samples were drawn from patients after an overnight fast and 2 hours after the ingestion of a protein challenge. This challenge was served in the form of a breakfast which consisted of orange juice, a cheese omelette, ham, a waffle and coffee.
The blood samples were assayed for the levels of plasma large neutral amino acids; phenylalanine, tyrosine, tryptophan, alanine, isoleucine, leucine, valine, histidine, and threonine, and for the levels of phenylethylamine. The latter was also measured because it is a major metabolite of phenylalanine and considered to be a neuromodulator.
The plasma amino acids, with the exception of tryptophan, were analyzed by phenylisothiocyanate (PITC) derivation followed by HPLC. The analysis of tryptophan was performed using HPLC with spectrofluormetric detection.
The plasma values of the amino acids were studied both as actual levels and as the ratio of phenylalanine level to the level of the other large neutral amino acids in the plasma. This ratio serves as an index of the entry of phenylalanine into the brain, which accounts for the competition of the other large neutral amino acids (LNAA) with phenylalanine (Phe) at the blood brain barrier, as discussed. previously. This ratio is calculated as follows: [formula]

[6] = Phenylalanine challenge, Parkinsonism symptoms (Study Three, Example 4); assay type: in vivo, patients (psychotic males and females); settings: 100 mg/kg
Protocol: (§1) A third study (Study Three) was a large scale replication of Study Two with some improved technical methodology; most importantly, the switch from a protein challenge to a phenylalanine challenge and the weight standardization of the phenylalanine challenge (100 mg/kg). This investigation was conducted in 209 psychotic males and 103 psychotic females. […] This finding was independent of the age of the patient.
(§2) As shown below, the data from this study has also enabled the present inventor to study the effect of the phenylalanine challenge on the symptom levels of Parkinsonism, akathisia and tardive dystonia. This information is important in justifying the usefulness of large neutral amino acid treatments for these disorders.
185 (59.3%) of the study patients made criterion for a case of Parkinsonism; […]. […] The large percentage (88.6%) of patients whose symptoms were impacted by the phenylalanine challenge supports the value of plasma large neutral amino acid manipulation in the treatment of this disorder. Further, as is seen in Table 3 below, this pattern of change was quite similar whether or not the patient had coexisting tardive dyskinesia. Though there is a case by case aspect to treatment success which makes prediction difficult, one can set forth some predictive generalizations as below. A further caveat is that because of the possible case of the worsening of a coexisting disorder the clinician must first treat the disorder that is causing the patient the most difficulty. Difficulty would be defined by some interaction between severity of symptom and disorder.

[7] = Phenylalanine challenge, akathisia symptoms (Study Three, Example 4); assay type: in vivo, patients (psychotic males and females); settings: 100 mg/kg
Protocol: as §1, §2
The large percentage (81.0%) of patients whose symptoms were impacted by the phenylalanine challenge supports the value of plasma large neutral amino acid manipulation in the treatment of this disorder. […] Patients without coexisting TD were more likely to show a higher level of symptom worsening than those with coexisting TD. As said for Parkinsonism, above, though it is the case that there is a case by case aspect to treatment success which makes prediction difficult, one can set forth some predictive generalizations as below: […]

[8] = after challenge administration, most of the subjects; cited from earlier work
[9] = Phenylalanine challenge, tardive dystonia symptoms (Study Three, Example 4); assay type: in vivo, patients (psychotic males and females); settings: 100 mg/kg
Protocol: as §1, §2
Thus, more than a majority of patients (57.9%) did respond to the phenylalanine challenge. […] Patients without coexisting TD were much more likely to improve their tardive dystonia symptom status after a phenylalanine challenge than patients with coexisting TD, while patients with coexisting TD were much more likely to show a higher level of symptom worsening than those without coexisting TD.

[10] = of the large neutral amino acids; cited from earlier work
serotonin receptors = settings: animals; cited from earlier work
[11] = in vivo; cited from earlier work; remark: listed apart in the source
[12] = 2 hours, ALL (n=185), listed as Phenylalanine
[13] = TD Symptom Persistence group (n = 15)
[14] = TD Symptom Remission group (n = 15)

## N[C@@H](Cc1c[nH]c2ccc(O)cc12)C(=O)O [5-hydroxytryptophan]
[1]; seven patients, concomitant administration with carbidopa
  effect on TD: no change in TD

## NC(Cc1c[nH]c2ccccc12)C(=O)O [D-L tryptophan]
[1]; 4 patients
  effect on TD: no change in TD

## CN1CCN(C2=Nc3cc(Cl)ccc3Nc3ccccc32)CC1 [clozapine]
[2]
  movement disorder side-effects: less likely to result in movement disorder side-effects
  other side effects: carries the risk of other serious life-threatening side effects

## N[C@@H](Cc1ccccc1)C(=O)O [phenylalanine]
[3]
  plasma phenylalanine and phenylalanine/LNAA ratio after phenylalanine challenge: statistically significant higher levels
[4]; Patient B, coexisting TD and tardive dystonia
  TD symptom change: did not show a symptom increase
[4]; after Phe challenge 100 mg/kg
  patients with an increase in TD symptom severity: three out of four
[4]; after Phe challenge 100 mg/kg, three patients
  increase in TD symptom severity, range over patients: 69% to 440
[4]; after Phe challenge 100 mg/kg, listed as Phe
  patients with an increase in TD symptom severity: Three
[5]; in vivo
  percentage change in plasma level: larger percentage changes
  post challenge phenylalanine to LNAA ratio: significantly higher
[6]; 2 hours
  patients whose Parkinsonism symptoms were impacted: 88.6%
[6]; 2 hours, ALL (n=185)
  Parkinsonism BETTER, %: 42.7%
  Parkinsonism BETTER, No.: 79 patients
  Parkinsonism NO CHANGE, %: 11.3%
  Parkinsonism NO CHANGE, No.: 21 patients
  Parkinsonism WORSE, %: 45.9%
  Parkinsonism WORSE, No.: 85 patients
[6]; 2 hours, ALL (n=185), listed as Phe
  Parkinsonism WORSE, %: 46%
[6]; [12]
  Parkinsonism NO CHANGE, %: 11.4%
  Parkinsonism WORSE, %: 45.9%
[6]; TD-NO (n=84)
  Parkinsonism BETTER, %: 40.5%
  Parkinsonism BETTER, No.: 34
  Parkinsonism NO CHANGE, %: 13.1%
  Parkinsonism NO CHANGE, No.: 11
  Parkinsonism WORSE, %: 46.4%
  Parkinsonism WORSE, No.: 39
[6]; TD-YES (n=101)
  Parkinsonism BETTER, %: 44.5%
  Parkinsonism BETTER, No.: 45
  Parkinsonism NO CHANGE, %: 9.9%
  Parkinsonism NO CHANGE, No.: 10
  Parkinsonism WORSE, %: 45.6%
  Parkinsonism WORSE, No.: 46
[7]; 2 hours
  patients whose akathisia symptoms were impacted: 81.0%
[7]; 2 hours, ALL (n=105)
  Akathisia BETTER, %: 33.4%
  Akathisia BETTER, No.: 35 patients
  Akathisia NO CHANGE, %: 19.0%
  Akathisia NO CHANGE, No.: 20 patients
  Akathisia WORSE, %: 47.6%
  Akathisia WORSE, No.: 50 patients
[7]; TD-NO (n=42)
  Akathisia BETTER, %: 23.8%
  Akathisia BETTER, No.: 10
  Akathisia NO CHANGE, %: 16.7%
  Akathisia NO CHANGE, No.: 7
  Akathisia WORSE, %: 59.5%
  Akathisia WORSE, No.: 25
[7]; TD-YES (n=63)
  Akathisia BETTER, %: 39.7%
  Akathisia BETTER, No.: 25
  Akathisia NO CHANGE, %: 21.6%
  Akathisia NO CHANGE, No.: 13
  Akathisia WORSE, %: 39.7%
  Akathisia WORSE, No.: 25
[8]
  time of peak phenylalanine plasma level: 2 h
[9]; 2 hours
  patients whose tardive dystonia responded to the phenylalanine challenge: 57.9%
[9]; 2 hours, ALL (n=19)
  Tardive dystonia BETTER, %: 21.0%
  Tardive dystonia BETTER, No.: 4 patients
  Tardive dystonia NO CHANGE, %: 42.1%
  Tardive dystonia NO CHANGE, No.: 8 patients
  Tardive dystonia WORSE, %: 36.9%
  Tardive dystonia WORSE, No.: 7 patients
[9]; TD-NO (n=5)
  Tardive dystonia BETTER, %: 60.0%
  Tardive dystonia BETTER, No.: 3
  Tardive dystonia NO CHANGE, %: 40.0%
  Tardive dystonia NO CHANGE, No.: 2
  Tardive dystonia WORSE, %: 0.0%
  Tardive dystonia WORSE, No.: none
[9]; TD-NO (n=5), listed as Phenylalanine
  Tardive dystonia WORSE, No.: 0
[9]; TD-YES (n=14)
  Tardive dystonia BETTER, %: 7.1%
  Tardive dystonia BETTER, No.: 1
  Tardive dystonia NO CHANGE, %: 42.9%
  Tardive dystonia NO CHANGE, No.: 6
  Tardive dystonia WORSE, %: 50.0%
  Tardive dystonia WORSE, No.: 7
[10]
  affinity for the blood brain barrier: highest affinity for the blood brain barrier

## NCCc1ccccc1 [phenylethylamine, reference compound]
[5]; [13]
  Plasma level, Percent Change (Postloading/Fasting): +14.7%
  Plasma level, Post-loading: 0.0951 ± 0.0192 ng/mL
  Plasma level, Fasting: 0.0829 ± 0.0198 ng/mL
[5]; [14]
  Plasma level, Percent Change (Postloading/Fasting): +5.9%
  Plasma level, Post-loading: 0.0927 ± 0.0218 ng/mL
  Plasma level, Fasting: 0.0875 ± 0.0305 ng/mL
[5]; persistence group, but not in remission group
  phenylethylamine level change: significantly increased
Serotonin receptors
  motor effect: produces a motor syndrome which can be blocked by serotonin antagonists

## CC(C)NCC(O)COc1cccc2ccccc12 (centres unmarked) [propranolol]
[11]
  treatment of neuroleptic-induced akathisia: successful in some patients

## N[C@@H](Cc1c[nH]c2ccccc12)C(=O)O [tryptophan]
[5]; in vivo
  decrease in tryptophan/LNAA ratio, greater in remittance group: 35%
  magnitude of decrease in tryptophan/LNAA ratio: significantly greater
[1]; two case reports
  effect on TD: reduction of TD symptoms

## N[C@@H](Cc1ccc(O)cc1)C(=O)O [tyrosine]
[5]; [13]
  Plasma LNAA Ratio, Percent Change (Postloading/Fasting): 0%
  Plasma level, Percent Change (Postloading/Fasting): +23.1%
  Plasma LNAA Ratio, Post-loading: 0.103 ± 0.012
  Plasma level, Post-loading: 85.3 ± 22.6 µM
  Plasma LNAA Ratio, Fasting: 0.103 ± 0.012
  Plasma level, Fasting: 69.3 ± 14.8 µM
[5]; [14]
  Plasma LNAA Ratio, Percent Change (Postloading/Fasting): 0%
  Plasma level, Percent Change (Postloading/Fasting): +30.1%
  Plasma LNAA Ratio, Post-loading: 0.090 ± 0.020
  Plasma level, Post-loading: 84.3 ± 23.5 µM
  Plasma LNAA Ratio, Fasting: 0.090 ± 0.022
  Plasma level, Fasting: 64.8 ± 17.1 µM
[5]; symptom remission group vs persistence group, 30 males
  percentage change in plasma level: larger percentage changes

## CC(C)[C@H](N)C(=O)O [valine]
[5]; in vivo
  percentage change in plasma level: larger percentage changes
  valine/LNAA ratio change: increased significantly

From patent US5919823A, “Treatment of secondary movement disorders using large neutral amino acids” (The Research Foundation For Mental Hygiene, priority 1997, dated 1999)
